Two compounds from publication PMC8070648, “Simultaneous Visualization of ^161Tb- and ^177Lu-Labeled Somatostatin Analogues Using Dual-Isotope SPECT Imaging” (Pharmaceutics, 2021) can be followed below.

Series [1] is described as follows: n-octanol/PBS distribution coefficient (logD), shake-flask method. In kind it is physicochemical. The note with it: PBS pH 7.4; average ± SD. As to the method:
DOTA-[Tyr^3]-octreotide (DOTATOC) was kindly provided by ITM Medical Isotopes GmbH, Munich, Germany.
Figure S3. Graphs of bars representing the percentage of intact radiopeptide investigated at 1 h, 4 h, and 24 h after preparation and dilution in saline (10 MBq/250 μL). (A) Percentage of intact radiopeptide in solution in the absence of ascorbic acid; (B) Percentage of intact radiopeptide in solution in the presence of ascorbic acid.
S4. Determination of n‐Octanol/PBS Distribution Coefficients (LogD Values) Purpose: The n‐octanol/PBS distribution coefficients (logD values) were assessed for each radiopeptide in order to investigate their hydrophilicity and enable comparison of […]
DOTA‐LM3) were determined by a shake‐flask method, as previously reported. […] The logD values were calculated as the logarithm of the ratio of counts per minute (cpm) measured in the n‐octanol phase relative to the cpm measured in the PBS pH 7.4 phase. The experiments were performed three times with five replicates for each radiopeptide and the logD value was expressed as the average ± standard deviation (SD) of the values obtained in each experiment. […]
Methods: A potential blockade of the uptake of [161Tb]Tb‐DOTA‐LM3 into AR42J cells was determined in the presence of >1000‐fold excess unlabeled DOTANOC or DOTA‐LM3 relative to the radiopeptide using the same protocol as reported in the main article. […]

For series [2], the system named is AR42J tumor-bearing mice. Briefly: Biodistribution in AR42J tumor-bearing nude mice. The settings on record: i.v. 5 MBq, 1 nmol/mouse. The class given is in vivo. From the text: Five-week-old female CD-1 nude mice were purchased from Charles River Laboratories (Sulzfeld, Germany).

As for `C[C@@H](O)[C@@H]1NC(=O)[C@H](CCCCN)NC(=O)[C@@H](Cc2c[nH]c3ccccc23)NC(=O)[C@H](Cc2ccc(O)cc2)NC(=O)[C@@H](NC(=O)[C@@H](Cc2ccccc2)NC(=O)CN2CCN(CC(=O)O)CCN(CC(=O)O)CCN(CC(=O)O)CC2)CSSC[C@@H](C(=O)N[C@H](CO)[C@@H](C)O)NC1=O` [[^161Tb]Tb-DOTATOC] [metal not drawn], the “logD value (n-octanol/PBS distribution coefficient)” value in series [1] is on record as −3.3 ± 0.2.

Consider `C[C@@H](O)[C@@H]1NC(=O)[C@H](CCCCN)NC(=O)[C@@H](Cc2c[nH]c3ccccc23)NC(=O)[C@H](Cc2ccc(O)cc2)NC(=O)[C@@H](NC(=O)[C@@H](Cc2ccccc2)NC(=O)CN2CCN(CC(=O)O)CCN(CC(=O)O)CCN(CC(=O)O)CC2)CSSC[C@@H](C(=O)N[C@H](CO)[C@@H](C)O)NC1=O` [[^177Lu]Lu-DOTATOC] [metal not drawn, reference compound], for which, in series [2] (2 h p.i.), the “AR42J Tumor” value worked out at 8.9 ± 1.5 % IA/g, the Adrenals was 0.28 ± 0.08 % IA/g, the Blood is at most 0.10 % IA/g and the Femur was at most 0.10 % IA/g. In series [2] (2 h p.i.), this compound had a Heart of at most 0.10 % IA/g, an Intestines of 0.20 ± 0.05 % IA/g, a Liver of 0.26 ± 0.07 % IA/g and a Lung of 0.37 ± 0.06 % IA/g. Further, in series [2] (2 h p.i.), the Muscle is given as at most 0.10 % IA/g, the Pancreas was 0.80 ± 0.13 % IA/g and the Stomach worked out at 0.65 ± 0.11 % IA/g. In series [2] (24 h p.i.), this compound registered a Blood of at most 0.10 % IA/g, a Femur of at most 0.10 % IA/g, a Heart of at most 0.10 % IA/g and an Intestines of at most 0.10 % IA/g. In series [2] (24 h p.i.), this compound gave a Kidneys of 5.9 ± 2.1 % IA/g, a Liver of 0.13 ± 0.02 % IA/g, a Muscle of at most 0.10 % IA/g and a Pancreas of 0.21 ± 0.04 % IA/g. The compound also showed a Spleen in series [2] (24 h p.i.) of at most 0.10 % IA/g. In addition, the “logD value (n-octanol/PBS distribution coefficient)” value in series [1] is on record as −3.1 ± 0.2.
